Legend:
[1] = in water / neutral medium / strongly acid or alkaline pH
Lenzites abietina CBS = test: Microbiological test; format: cell-based
Source text: (§1) In the test for microbiocidal activity the compounds listed hereinbelow yielded the values indicated in the following Table: No. Compound __________________________________________________________________________ 1 (n--C4 H9)3 Sn--S--CH2 --CH2 --COO.(CH 2 --CH2 --O--n H(n~9) 2 (C6 H5)3 Sn--S--(CH2)3 --SO3.Na CH3 .vertline. 3 --Sn--S--CH2 --CH2 --COO--(CH2 --CH2 --O)n.H(n ~9) .vertline. CH3 4 (n--C4 H9)3 Sn--S--CH2 --COO.H.N(CH2 CH2 OH)3 5 (n--C4 H9)3 Sn--S--(CH2)2 --COO.H.N(CH2 CH2 OH)3 6 (n--C4 H9)3 Sn--S--CH2 --CO.N(CH2 CH2 OH)2 __________________________________________________________________________

[2] = test system: Escherichia coli RP 45410; test: Microbiological test; format: cell-based
Source text: as §1

Fusarium oxysporum CBS = test: Microbiological test; format: cell-based
Source text: as §1

Trichophyton gypseum CBS = test: Microbiological test; format: cell-based
Source text: as §1

[3] = test system: Stachybotrys atra CBS 32465; test: Microbiological test; format: cell-based
Source text: as §1

[4] = test system: Penicillium expansum SMC 36; test: Microbiological test; format: cell-based
Source text: as §1

[5] = test system: Pullularia pullulans CBS 10767; test: Microbiological test; format: cell-based
Source text: as §1

Paecilomyces varioti CBS = test: Microbiological test; format: cell-based
Source text: as §1

[6] = test system: Polystictus versicolor EMPA61; test: Microbiological test; format: cell-based
Source text: as §1

[7] = test system: Mycobacterium phlei CITM 61; test: Microbiological test; format: cell-based
Source text: as §1

Sarcina ureae SMB 81 = test: Microbiological test; format: cell-based
Source text: as §1

[8] = test system: Staphylococcus aureus SG 511; test: Microbiological test; format: cell-based
Source text: as §1

Fusarium spec. DAP = test: Microbiological test; format: cell-based
Source text: as §1

[9] = test system: Salmonella gallinarum VBIB; test: Microbiological test; format: cell-based
Source text: as §1

[10] = test system: Pseudomonas fluorescens NCTC 4755; test: Microbiological test; format: cell-based
Source text: as §1

[11] = test system: Staphylococcus aureus SG 511 M6; test: Microbiological test; format: cell-based
Source text: as §1

Coniphora cerebella CBS = test: Microbiological test; format: cell-based
Source text: as §1

Hefe DAP = test: Microbiological test; format: cell-based
Source text: as §1

[12] = test system: Pasteurella multocida K753; test: Microbiological test; format: cell-based
Source text: as §1

Salmonella pullorum VBIZ = test: Microbiological test; format: cell-based
Source text: as §1

Hefe rot DAP = test: Microbiological test; format: cell-based
Source text: as §1

Pilz schwarzlich DAP = test: Microbiological test; format: cell-based
Source text: as §1

[13] = test system: Penicillium funiculosum CEB 329631; test: Microbiological test; format: cell-based
Source text: as §1

Candida albicans CBS = test: Microbiological test; format: cell-based
Source text: as §1

[14] = test system: Escherichia coli NCTC 8195; test: Microbiological test; format: cell-based
Source text: as §1

[15] = test system: Trichoderma viride CEB 3334.2; test: Microbiological test; format: cell-based
Source text: as §1

[16] = test system: Bacillus subtilis NCTC 6460; test: Microbiological test; format: cell-based
Source text: as §1

[17] = test system: Aspergillus flavus CBS 12662; test: Microbiological test; format: cell-based
Source text: as §1

[18] = test system: Arizona paracolon 7:1.7,8; test: Microbiological test; format: cell-based
Source text: as §1

[19] = test system: Streptococcus faecalis NCTC 8619; test: Microbiological test; format: cell-based
Source text: as §1

[20] = test system: Chaetomium globosum CBS 14851; test: Microbiological test; format: cell-based
Source text: as §1

[21] = test system: Streptococcus agalactiae M100; test: Microbiological test; format: cell-based
Source text: as §1

[22] = test system: Aspergillus niger ATCC 6275; test: Microbiological test; format: cell-based
Source text: as §1

Poria vaporia CBS = test: Microbiological test; format: cell-based
Source text: as §1

[23] = test system: Corynebacterium diphteroides FUR; test: Microbiological test; format: cell-based
Source text: as §1

[24] = test system: Alternaria tenuis CBS 10426; test: Microbiological test; format: cell-based
Source text: as §1

[25] = test system: Salmonella cholerae-suis VBIB; format: cell-based

Compound: CCC[CH2][Sn]([CH2]CCC)([CH2]CCC)[O]S(N)(=O)=O [tributyltin sulphaminate]
- stability to hydrolysis (in words) [1]: hydrolytically split off in water at once

Compound: S-tri-n-butyl-tin-β-mercaptopropionic acid polyethylene glycol ester [Compound 1]
- Activity range (Lenzites abietina CBS): 10 ppm
- Activity range [2]: 10 ppm
- Activity range (Fusarium oxysporum CBS): 30 ppm
- Activity range (Trichophyton gypseum CBS): 30 ppm
- Activity range [3]: 10 ppm
- Activity range [4]: 30 ppm
- Activity range [5]: 10 ppm
- Activity range (Paecilomyces varioti CBS): 30 ppm
- Activity range [6]: 100 ppm
- Activity range [7]: 3 ppm
- Activity range (Sarcina ureae SMB 81): 10 ppm
- Activity range [8]: 10 ppm
- Activity range (Fusarium spec. DAP): 30 ppm
- Activity range [9]: > 300 ppm
- Activity range [10]: 10 ppm
- Activity range [11]: 10 ppm
- Activity range (Coniphora cerebella CBS): 10 ppm
- Activity range (Hefe DAP): 10 ppm
- Activity range [12]: 10 ppm
- Activity range (Salmonella pullorum VBIZ): > 300 ppm
- Activity range (Hefe rot DAP): 10 ppm
- Activity range (Pilz schwarzlich DAP): 10 ppm
- Activity range [13]: 30 ppm
- Activity range (Candida albicans CBS): 30 ppm
- Activity range [14]: 10 ppm
- Activity range [15]: 100 ppm
- Activity range [16]: 10 ppm
- Activity range [17]: 30 ppm
- Activity range [18]: > 300 ppm
- Activity range [19]: 10 ppm
- Activity range [20]: 10 ppm
- Activity range [21]: 3 ppm
- Activity range [22]: 30 ppm
- Activity range (Poria vaporia CBS): 100 ppm
- Activity range [23]: 10 ppm
- Activity range [24]: 30 ppm
- Activity range [25]: > 300 ppm
